Results taken from patent publication US10160783B2, “Neuroactive 13, 17-substituted steroids as modulators for GABA type-A receptors” (priority 2013, dated 2018).
Read-outs that look alike come from different tables or passages of the source.

Columns and labels:
[1] = target: picrotoxin binding site on GABAA receptors; test: [35S]-TBPS displacement (inhibition of [35S]-TBPS binding); settings: non-competitive displacement of [35S]-TBPS; ± SEM, duplicate experiments in triplicate
Description: The IC50 values for non-competitive displacers of [^35S]-TBPS from the picrotoxin binding site on GABAA receptors are reported in Table 1.
Results presented are from duplicate experiments performed in triplicate. Error limits are calculated as standard error of the mean. Methods used are known in the art (see Jiang, X., et al., Neurosteroid analogues. 9. Conformationally constrained pregnanes: structure-activity studies of 13,24-cyclo-18,21-dinorcholane analogues of the GABA modulatory and anesthetic steroids (3α,5α)- and […]. J. Med. Chem., 46: 5334-48 (2003)—the contents of which are hereby incorporated by reference in their entirety).

[2] = target: T1, rat α1β2γ2L type GABAA receptors expressed in Xenopus laevis oocytes (Rattus norvegicus, UniProt P18508+P62813+P63138, INS375LLRMFSFK); test: Potentiation of GABA-mediated chloride currents and direct gating, oocyte electrophysiology; format: cell-based; settings: ± SEM, N ≥ 4; for oocyte electrophysiology 0.1 μM: ratio of currents measured in the presence/absence of added compound: 0.1 μM compound; for oocyte electrophysiology 0.1 μM: ratio of currents measured in the presence/absence of added compound / oocyte electrophysiology 1 μM: ratio of currents measured in the presence/absence of added compound / oocyte electrophysiology 10 μM: ratio of currents measured in the presence/absence of added compound: 2 μM GABA control response; for oocyte electrophysiology 1 μM: ratio of currents measured in the presence/absence of added compound: 1 μM compound; for oocyte electrophysiology 10 μM: ratio of currents measured in the presence/absence of added compound: 10 μM compound; for (gating) 10 μM: ratio of compound only current/2 μM GABA current: direct current gated by 10 μM compound in the absence of GABA
T1 construct: expressed in transfected cells; host or cells: Xenopus laevis oocytes
T1 sequence (P62813 28-455, stated change not applied): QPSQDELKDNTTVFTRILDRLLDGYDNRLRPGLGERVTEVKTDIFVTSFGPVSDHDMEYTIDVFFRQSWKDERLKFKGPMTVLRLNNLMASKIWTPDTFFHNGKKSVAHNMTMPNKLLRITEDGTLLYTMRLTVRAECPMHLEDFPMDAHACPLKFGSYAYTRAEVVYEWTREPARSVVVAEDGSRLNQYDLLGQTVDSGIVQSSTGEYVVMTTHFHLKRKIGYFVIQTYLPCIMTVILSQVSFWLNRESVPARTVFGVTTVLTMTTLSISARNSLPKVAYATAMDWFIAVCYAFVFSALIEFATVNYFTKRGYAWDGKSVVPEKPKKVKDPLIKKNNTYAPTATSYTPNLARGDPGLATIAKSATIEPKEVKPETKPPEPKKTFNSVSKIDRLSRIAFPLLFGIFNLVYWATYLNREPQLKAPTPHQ
T1 sequence (P63138 26-474, stated change not applied): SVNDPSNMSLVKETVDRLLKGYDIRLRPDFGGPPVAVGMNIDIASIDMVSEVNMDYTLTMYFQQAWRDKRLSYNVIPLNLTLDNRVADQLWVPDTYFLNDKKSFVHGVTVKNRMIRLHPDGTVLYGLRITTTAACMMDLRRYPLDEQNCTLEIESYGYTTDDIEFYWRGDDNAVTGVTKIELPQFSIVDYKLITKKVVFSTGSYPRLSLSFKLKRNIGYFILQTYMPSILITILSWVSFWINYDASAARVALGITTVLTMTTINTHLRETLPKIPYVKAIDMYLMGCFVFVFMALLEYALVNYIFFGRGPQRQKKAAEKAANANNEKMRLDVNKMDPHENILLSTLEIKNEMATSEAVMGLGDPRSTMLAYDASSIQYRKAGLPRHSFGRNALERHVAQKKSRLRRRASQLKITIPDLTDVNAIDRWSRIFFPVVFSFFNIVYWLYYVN
T1 sequence (P18508 with tags, fused parts or gaps INS375LLRMFSFK): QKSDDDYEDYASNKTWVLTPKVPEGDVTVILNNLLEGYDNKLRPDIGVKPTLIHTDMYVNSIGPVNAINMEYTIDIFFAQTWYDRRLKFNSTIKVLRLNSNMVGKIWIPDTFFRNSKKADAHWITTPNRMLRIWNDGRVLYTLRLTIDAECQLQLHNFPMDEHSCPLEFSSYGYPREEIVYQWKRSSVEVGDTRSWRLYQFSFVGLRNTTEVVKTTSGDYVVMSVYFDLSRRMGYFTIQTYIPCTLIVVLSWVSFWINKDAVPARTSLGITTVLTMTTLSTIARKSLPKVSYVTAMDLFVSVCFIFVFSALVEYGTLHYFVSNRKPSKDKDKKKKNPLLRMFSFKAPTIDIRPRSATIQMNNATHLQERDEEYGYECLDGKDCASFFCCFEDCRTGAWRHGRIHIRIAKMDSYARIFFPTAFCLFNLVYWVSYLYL
Description: The compounds of the present disclosure were evaluated for the ability to potentiate chloride currents mediated by 2 μM GABA at rat α1β2γ2L type GABAA receptors expressed in Xenopus laevis oocytes and the results are shown in Table 2.

Tadpole = Tadpole loss of righting reflex (LRR) and loss of swimming reflex (LSR); format: in vivo; settings: ± SEM
Description: Table 3 discloses the anesthetic effects of the compounds of the present disclosure. In particular, the anesthetic effect of the compounds of the present disclosure on Loss of Righting Reflex (LRR) and Loss of Swimming Reflex (LSR).
Methods used are known in the art (see Jiang, X., et al.). Error limits are calculated as standard error of the mean (N=10 or more animals at each of five or more different concentrations).

[3] = loss of righting reflex, read-out: Tadpole LRR EC50
[4] = loss of swimming reflex, read-out: Tadpole LSR EC50

Compound	IC50 [1] [nM]	oocyte electrophysiology 0.1 μM: ratio of currents measured in the presence/absence of added compound [2]	oocyte electrophysiology 1 μM: ratio of currents measured in the presence/absence of added compound [2]	oocyte electrophysiology 10 μM: ratio of currents measured in the presence/absence of added compound [2]	(gating) 10 μM: ratio of compound only current/2 μM GABA current [2]	EC50 (Tadpole; [3]) [nM]	EC50 (Tadpole; [4]) [nM]	melting point [°C]	Tadpole LSR EC50 (μM) (Tadpole; loss of swimming reflex)
CC(=O)[C@H]1CC[C@H]2[C@@H]3CC[C@H]4C[C@H](O)CC[C@]4(C)[C@H]3CC[C@]12C(C)=O [ZYC-71, (3α,5α)-13-Acetyl-3-hydroxy-18-norpregnan-20-one]	82 ± 7	1.82 ± 0.03	9.31 ± 0.46	19.44 ± 1.69	0.22 ± 0.01	1730 ± 10	5480 ± 150	180 to 181	–
C=C[C@]12CC[C@H]3[C@@H](CC[C@H]4C[C@H](O)CC[C@@]43C)[C@@H]1CC[C@@H]2[C@@H](C)O [ZYC-76, (3α,5α,20R)-13-Ethenyl-18-norpregnan-3,20-diol]	497 ± 59	1.00 ± 0.01	1.56 ± 0.13	7.28 ± 1.76	0.04 ± 0.02	742000 ± 202000	1740 ± 30	193 to 195	–
C=C[C@H]1CC[C@H]2[C@@H]3CC[C@H]4C[C@H](O)[C@@H](OC)C[C@]4(C)[C@H]3CC[C@]12C(C)=O [KK-140, 1-[(2β,3α,5α)-3-Hydroxy-2-Methoxy-18-norpregn-20-en-13-yl]ethanone]	17 ± 3	5.39 ± 2.76	11.90 ± 1.08	17.29 ± 2.10	0.27 ± 0.06	50	300	155 to 157	–
CC(=O)[C@]12CC[C@H]3[C@@H](CC[C@H]4C[C@H](O)CC[C@@]43C)[C@@H]1CC[C@@H]2CCl [ZYC-74, 1-[(3α,5α,17β)-17-Chloromethy-3-hydroxy-18-norandrostan-13-yl]ethanone]	415 ± 83	1.06 ± 0.04	1.98 ± 0.21	9.38 ± 1.71	0.03 ± 0.01	3330 ± 1410	5480 ± 200	161 to 162	–
C=C[C@]12CC[C@H]3[C@@H](CC[C@H]4C[C@H](O)CC[C@@]43C)[C@@H]1CC[C@@H]2C(C)=O [ZYC-75]	–	–	–	–	–	670 ± 10	2640 ± 10	146 to 147	–
C=C[C@H]1CC[C@H]2[C@@H]3CC[C@H]4C[C@H](O)CC[C@]4(C)[C@H]3[C@@H](OC)C[C@]12C(C)=O [KK-144, 1-[(3α,5α,11β)-3-Hydroxy-11-methoxy-18-norpregn-20-en-13-yl]ethanone]	72 ± 16	1.40 ± 0.11	5.38 ± 0.55	10.59 ± 1.31	0.18 ± 0.02	180 ± 10	550 ± 10	127 to 129	–
CC(=O)[C@]12CC[C@H]3[C@@H](CC[C@H]4C[C@H](O)CC[C@@]43C)[C@@H]1CC[C@@H]2CO [ZYC-73, 1-[(3α,5α,17β)-3-Hydroxy-17-hydroxymethyl-18-norandrostan-13-yl]ethanone]	1460	1.07 ± 0.15	1.42 ± 0.16	6.16 ± 0.71	–	> 10000	–	166 to 168	None
C=C[C@H]1CC[C@H]2[C@@H]3CC[C@H]4C[C@H](O)CC[C@]4(COC)[C@H]3CC[C@]12C(C)=O [KK-145, 1-[(3α,5α)-3-Hydroxy-19-methoxy-18-norpregn-20-en-13-yl]ethanone]	53 ± 4	1.75 ± 0.14	13.74 ± 3.71	35.57 ± 12.85	0.56 ± 0.07	140 ± 10	550 ± 10	124 to 126	–
C=C[C@H]1CC[C@H]2[C@@H]3C[C@@H](OC)[C@H]4C[C@H](O)CC[C@]4(C)[C@H]3CC[C@]12C(C)=O [KK-143, 1-[(3α,5α,6β)-3-Hydroxy-6-methoxy-18-norpregn-20-en-13-yl]ethanone]	270 ± 19	1.23 ± 0.06	2.93 ± 0.30	8.43 ± 0.69	0.07 ± 0.02	610 ± 60	1730 ± 30	158 to 160	–
CC[C@H]1CC[C@H]2[C@@H]3CC[C@H]4C[C@H](O)CC[C@]4(C)[C@H]3CC[C@]12C(C)=O [XJ-100, 1-[(3α,5α)-3-Hydroxy-18-norpregnan-13-yl]ethanone]	276 ± 130	1.33 ± 0.20	5.01 ± 0.89	8.41 ± 0.66	−0.06 ± 0.06	460 ± 160	> 10000	182 to 184	–
CC(=O)[C@]12CC[C@H]3[C@@H](CC[C@H]4C[C@H](O)CC[C@@]43C)[C@@H]1CC[C@@H]2[C@@H](C)O [ZYC-72, (3α,5α,20R)-13-Acetyl-18-norpregnane-3,20-diol]	978 ± 618	0.80 ± 0.08	1.30 ± 0.11	2.78 ± 0.37	−0.03 ± 0.11	3060	> 10000	159 to 161	–
C=C[C@H]1CC[C@H]2[C@@H]3CC[C@H]4C[C@H](O)CC[C@]4(C)[C@H]3CC[C@]12C(C)=O [XJ-99, 1-[(3α,5α)-3-Hydroxy-18-norpregn-20-en-13-yl]ethanone]	43 ± 12	1.73 ± 0.20	3.96 ± 0.99	4.37 ± 1.28	0.07 ± 0.02	50	140	178 to 179.5	–
